What was measured:
Assay type in all cases: in vivo
[1] = tested on: Barley; assay: Selective postemergence, track sprayer
Description: (§1) Representative compositions of the present invention were evaluated for the postemergence control of species of plants listed in Table A. In these evaluations, pots of the plant species listed in Table A, grown to a height of about 10 cms, were used. Aqueous spray compositions, containing various amounts of 2-[4-(2-fluoro-4-trifluoromethylphenoxy)-phenoxy]propionic acid methy ester, i.e., 125 ppm, 62.5 ppm, 31.25 ppm, 15.6 ppm, 7.8 ppm and 3.9 ppm, respectively, were applied to separate pots. The spray compositions were made by mixing the active ingredient in acetone to 1/2 the final volume, i.e., twice the final concentration. An equal amount of water was added to the active ingredient/acetone mixture wherein the water contained 0.1 percent by weight of TWEEN® 200 surfactant. The application to the plants was made to the point of run-off and was carried out with conventional spraying equipment. Other pots were sprayed with similar compositions containing no toxicant to serve as controls. Thereafter, the pots were maintained under conditions conducive for plant growth. Two weeks after treatment, the pots were examined for plant growth and evaluated on a scale of 0 to 100 where 0 represents no effect and 100 represents complete kill. The results of the examination of the treated pots are set forth below in Table A.
(§2) To further define the selective postemergence herbicidal characteristics of compounds of the present invention, chemicals were applied to additional species of grasses as listed in Table F. Chemicals evaluated were 2-[4-(4-bromo-2-fluorophenoxy)phenoxy]propionic acid methyl ester and its R isomer. Treatment conditions were similar to those described in Example A except that chemicals were delivered through a track sprayer set to deliver the appropriate dosages in 280.6 L/hectare of water containing 0.1% Tween-20 surfactant.

[2] = tested on: Annual Bluegrass; assay: Selective postemergence, track sprayer
Description: as §1, §2

[3] = tested on: Green Foxtail; assay: Selective postemergence, track sprayer
Description: as §1, §2

[4] = tested on: Downey Brome; assay: Selective postemergence, track sprayer
Description: as §1, §2

[5] = tested on: Johnsongrass; assay: Selective postemergence, track sprayer
Description: as §1, §2

[6] = tested on: Tall Fescue; assay: Selective postemergence, track sprayer
Description: as §1, §2

[7] = tested on: Annual Rye; assay: Selective postemergence, track sprayer
Description: as §1, §2

[8] = tested on: Barnyardgrass; assay: Selective postemergence, track sprayer
Description: as §1, §2

[9] = tested on: Cheatgrass; assay: Selective postemergence, track sprayer
Description: as §1, §2

[10] = tested on: Barnyard Grass; assay: Preemergent activity; conditions: Echinochloa crus-galli, pre-emergence, read-out: Preemergence Control
Procedure, shortened: (§3)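 Test compound was dissolved in acetone at twice the final concentration, then mixed with an equal volume of water containing 0.1% w/w Tween-20. The resulting emulsion was sprayed uniformly at a predetermined rate onto sandy loam seed beds sown with each species. Controls received acetone–Tween-20–water only.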

[11] = tested on: Yellow Foxtail; assay: Preemergent activity; conditions: Setaria, pre-emergence, read-out: Preemergence Control
Procedure, shortened: as §3

COC(=O)C(C)Oc1ccc(Oc2ccc(Br)cc2F)cc1 (racemic) [Example 4-Bromo-, 2-[4-(4-bromo-2-fluorophenoxy)phenoxy]propionic acid methyl ester]
70%: Percent Control ([8]; 0.0023 kgs/hectare)
20%: Percent Control ([1]; 0.28 kgs/hectare) | Percent Control ([3]; 0.0023 kgs/hectare) | Percent Control ([5]; 0.14 kgs/hectare) | Percent Control ([6]; 0.0045 kgs/hectare) | Percent Control ([6]; 0.009 kgs/hectare) | Percent Control ([7]; 0.009 kgs/hectare) | Percent Control ([9]; 0.56 kgs/hectare)
60%: Percent Control ([6]; 0.035 kgs/hectare)
30%: Percent Control ([5]; 0.28 kgs/hectare)
40%: Percent Control ([7]; 0.035 kgs/hectare) | Percent Control ([8]; 0.0011 kgs/hectare)
100%: Percent Control ([3]; 0.035 kgs/hectare) | Percent Control ([3]; 0.07 kgs/hectare) | Percent Control ([3]; 0.14 kgs/hectare) | Percent Control ([3]; 0.28 kgs/hectare) | Percent Control ([3]; 0.56 kgs/hectare) | Percent Control ([7]; 0.07 kgs/hectare) | Percent Control ([7]; 0.14 kgs/hectare) | Percent Control ([7]; 0.28 kgs/hectare) | Percent Control ([7]; 0.56 kgs/hectare) | Percent Control ([8]; 0.0045 kgs/hectare) | Percent Control ([8]; 0.009 kgs/hectare) | Percent Control ([8]; 0.035 kgs/hectare) | Percent Control ([8]; 0.07 kgs/hectare) | Percent Control ([8]; 0.14 kgs/hectare) | Percent Control ([8]; 0.28 kgs/hectare) | Percent Control ([8]; 0.56 kgs/hectare)
0%: Percent Control ([1]; 0.0011 kgs/hectare) | Percent Control ([1]; 0.0023 kgs/hectare) | Percent Control ([1]; 0.0045 kgs/hectare) | Percent Control ([1]; 0.009 kgs/hectare) | Percent Control ([1]; 0.018 kgs/hectare) | Percent Control ([1]; 0.035 kgs/hectare) | Percent Control ([1]; 0.07 kgs/hectare) | Percent Control ([2]; 0.0011 kgs/hectare) | Percent Control ([2]; 0.0023 kgs/hectare) | Percent Control ([2]; 0.0045 kgs/hectare) | Percent Control ([2]; 0.009 kgs/hectare) | Percent Control ([2]; 0.018 kgs/hectare) | Percent Control ([2]; 0.035 kgs/hectare) | Percent Control ([2]; 0.07 kgs/hectare) | Percent Control ([2]; 0.14 kgs/hectare) | Percent Control ([2]; 0.28 kgs/hectare) | Percent Control ([2]; 0.56 kgs/hectare) | Percent Control ([3]; 0.0011 kgs/hectare) | Percent Control ([4]; 0.0011 kgs/hectare) | Percent Control ([4]; 0.0023 kgs/hectare) | Percent Control ([4]; 0.0045 kgs/hectare) | Percent Control ([4]; 0.009 kgs/hectare) | Percent Control ([4]; 0.018 kgs/hectare) | Percent Control ([4]; 0.035 kgs/hectare) | Percent Control ([4]; 0.07 kgs/hectare) | Percent Control ([4]; 0.14 kgs/hectare) | Percent Control ([4]; 0.28 kgs/hectare) | Percent Control ([4]; 0.56 kgs/hectare) | Percent Control ([5]; 0.0011 kgs/hectare) | Percent Control ([5]; 0.0023 kgs/hectare) | Percent Control ([5]; 0.0045 kgs/hectare) | Percent Control ([5]; 0.009 kgs/hectare) | Percent Control ([5]; 0.035 kgs/hectare) | Percent Control ([5]; 0.07 kgs/hectare) | Percent Control ([6]; 0.0011 kgs/hectare) | Percent Control ([7]; 0.0011 kgs/hectare) | Percent Control ([7]; 0.0023 kgs/hectare) | Percent Control ([7]; 0.0045 kgs/hectare) | Percent Control ([9]; 0.0011 kgs/hectare) | Percent Control ([9]; 0.0023 kgs/hectare) | Percent Control ([9]; 0.0045 kgs/hectare) | Percent Control ([9]; 0.009 kgs/hectare) | Percent Control ([9]; 0.018 kgs/hectare) | Percent Control ([9]; 0.035 kgs/hectare) | Percent Control ([9]; 0.07 kgs/hectare) | Percent Control ([9]; 0.14 kgs/hectare) | Percent Control ([9]; 0.28 kgs/hectare)
90%: Percent Control ([3]; 0.0045 kgs/hectare) | Percent Control ([3]; 0.009 kgs/hectare) | Percent Control ([6]; 0.14 kgs/hectare)
10%: Percent Control ([1]; 0.14 kgs/hectare) | Percent Control ([6]; 0.0023 kgs/hectare)
80%: Percent Control ([5]; 0.56 kgs/hectare)
50%: Percent Control ([1]; 0.56 kgs/hectare)
95%: Percent Control ([6]; 0.28 kgs/hectare) | Percent Control ([6]; 0.56 kgs/hectare)

COC(=O)C(C)Oc1ccc(Oc2ccc(Cl)cc2F)cc1 (racemic) [Example 4-Chloro-, 2-[4-(4-chloro-2-fluorophenoxy)phenoxy]propionic acid methyl ester]
40%: pest or weed control at 70 g/ha ([10]; 0.07 kgs/hectare)
95%: pest or weed control at 560 g/ha ([11]; 0.56 kgs/hectare) | pest or weed control at 1120 g/ha ([11]; 1.12 kgs/hectare)
10%: pest or weed control at 140 g/ha ([11]; 0.14 kgs/hectare)
0%: pest or weed control at 70 g/ha ([11]; 0.07 kgs/hectare)
90%: pest or weed control at 280 g/ha ([11]; 0.28 kgs/hectare)
100%: pest or weed control at 560 g/ha ([10]; 0.56 kgs/hectare) | pest or weed control at 1120 g/ha ([10]; 1.12 kgs/hectare)
98%: pest or weed control at 140 g/ha ([10]; 0.14 kgs/hectare) | pest or weed control at 280 g/ha ([10]; 0.28 kgs/hectare)

— patent publication US4725683A, “Fluorophenoxyphenoxypropionates and derivatives thereof” (The Dow Chemical Company, priority 1985, dated 1988)
